Experimental data taken from patent US11697648B2, “Fused pyrimidine pyridinone compounds as JAK inhibitors” (THERAVANCE BIOPHARMA R&D IP, LLC, priority 2019, dated 2023).

How the values were obtained:
Caco-2 cell monolayers = experiment: Caco-2 permeation assay; format: in vitro ADME; conditions: 5 μM, A-B direction, with Verapamil (25 μM)
Experimental: Assay 4: Caco-2 Permeation Assay
The Caco-2 permeation assay was performed to model the ability of test compounds to pass through the intestine and get into the blood stream after oral administration. The rate at which test compounds in solution permeate a cell monolayer designed to mimic the tight junction of human small intestinal monolayers was determined.
CacoReady 24-well transwell plates were obtained from ADMEcell (Alameda, Calif.). The compounds were evaluated at a concentration of 5 μM from 10 mM DMSO stock solutions in duplicate (n=2). The passive permeability of the compounds tested was evaluated using Caco-2 cell monolayers along with Verapamil (25 μM) to inhibit P-gp transport proteins in the apical to basolateral (A-B) direction. The experiment was conducted in a 37° C., 5% CO2 incubator. Caco-2 culture media consisted of standard filtered DMEM, FCS 10%, L-Glutamine 1% and PenStrep 1%. Basal assay plate was prepared by adding 750 μL of transport buffer to A-B wells. A CacoReady™ plate was prepared by removing the Caco-2 media from the apical wells and replacing with fresh transport media (200 μL repeated for a total of 3 washes). Blank media (200 μL) was then replaced with diluted compound for A-B wells. To begin the incubation, the basal plate was removed from the incubator and the apical section was added on top of it. Samples (40 μL) were collected from the apical and basal compartments for time zero (t0). Samples were collected again after 120 minutes (t120) from the apical and basal compartments. All samples were diluted and prepared for bioanalysis by LC-MS/MS. The permeation coefficient (Kp, mean A to B+ Verapamil Papparent) in cm/sec was calculated as dQ (flux)/(dt×Area×concentration).
In this assay, a Kp value less than about 5×10^−6 cm/sec is considered favorable to minimize systemic exposure and target the colon. A Kp value less than about 10×10^−6 cm/sec may also be sufficient to minimize systemic exposure and target the colon.

JAK3 = JAK3 (Homo sapiens (Human), UniProt P52333); experiment: Biochemical JAK3 kinase assay (LanthaScreen); conditions: for JAK3 (pKi)-JAK1 (pKi): selectivity JAK3 over JAK1, difference of pKi
Procedure, shortened: (§1)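 GST-JAK + GFP-STAT1 peptide, HEPES pH 7.5/MgCl2/EGTA/Brij-35 buffer; cpd preincubation 1 h RT; ATP start, 1 h RT; stop with 10 mM EDTA + 2 nM Tb-anti-pSTAT1; TR-FRET 520/495. 4-parameter IC50 → pKi (Cheng-Prusoff).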

JAK2 = JAK2 (Homo sapiens (Human), UniProt O60674); experiment: Biochemical JAK2 kinase assay (LanthaScreen)
Procedure, shortened: as §1

[1] = test system: IL-2 stimulated STAT5 phosphorylation in Tall-1 human T cell line (JAK3); experiment: Cellular JAK3 potency assay: inhibition of IL-2 stimulated pSTAT5 in Tall-1 T cells; format: cell-based; conditions: IL-2 stimulated pSTAT5, Tall-1 T cells
Procedure, shortened: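 Tall-1 cells, 45,000 per well, preincubated 1 hour with compound at 37 °C, then stimulated 30 minutes with IL-2 at 300 ng/ml final. pSTAT5 (Tyr694/699) in lysates quantified by AlphaLISA SureFire Ultra. pIC50 derived from inhibition curves, given as mean with SD.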

JAK1 = JAK1 (Homo sapiens (Human), UniProt P23458); experiment: Biochemical JAK1 kinase assay (LanthaScreen)
Procedure, shortened: as §1

Tyk2 = Tyk2 (Homo sapiens (Human), UniProt P29597); experiment: Biochemical Tyk2 kinase assay (LanthaScreen)
Procedure, shortened: as §1

Sequence of JAK2 (O60674 whole entry): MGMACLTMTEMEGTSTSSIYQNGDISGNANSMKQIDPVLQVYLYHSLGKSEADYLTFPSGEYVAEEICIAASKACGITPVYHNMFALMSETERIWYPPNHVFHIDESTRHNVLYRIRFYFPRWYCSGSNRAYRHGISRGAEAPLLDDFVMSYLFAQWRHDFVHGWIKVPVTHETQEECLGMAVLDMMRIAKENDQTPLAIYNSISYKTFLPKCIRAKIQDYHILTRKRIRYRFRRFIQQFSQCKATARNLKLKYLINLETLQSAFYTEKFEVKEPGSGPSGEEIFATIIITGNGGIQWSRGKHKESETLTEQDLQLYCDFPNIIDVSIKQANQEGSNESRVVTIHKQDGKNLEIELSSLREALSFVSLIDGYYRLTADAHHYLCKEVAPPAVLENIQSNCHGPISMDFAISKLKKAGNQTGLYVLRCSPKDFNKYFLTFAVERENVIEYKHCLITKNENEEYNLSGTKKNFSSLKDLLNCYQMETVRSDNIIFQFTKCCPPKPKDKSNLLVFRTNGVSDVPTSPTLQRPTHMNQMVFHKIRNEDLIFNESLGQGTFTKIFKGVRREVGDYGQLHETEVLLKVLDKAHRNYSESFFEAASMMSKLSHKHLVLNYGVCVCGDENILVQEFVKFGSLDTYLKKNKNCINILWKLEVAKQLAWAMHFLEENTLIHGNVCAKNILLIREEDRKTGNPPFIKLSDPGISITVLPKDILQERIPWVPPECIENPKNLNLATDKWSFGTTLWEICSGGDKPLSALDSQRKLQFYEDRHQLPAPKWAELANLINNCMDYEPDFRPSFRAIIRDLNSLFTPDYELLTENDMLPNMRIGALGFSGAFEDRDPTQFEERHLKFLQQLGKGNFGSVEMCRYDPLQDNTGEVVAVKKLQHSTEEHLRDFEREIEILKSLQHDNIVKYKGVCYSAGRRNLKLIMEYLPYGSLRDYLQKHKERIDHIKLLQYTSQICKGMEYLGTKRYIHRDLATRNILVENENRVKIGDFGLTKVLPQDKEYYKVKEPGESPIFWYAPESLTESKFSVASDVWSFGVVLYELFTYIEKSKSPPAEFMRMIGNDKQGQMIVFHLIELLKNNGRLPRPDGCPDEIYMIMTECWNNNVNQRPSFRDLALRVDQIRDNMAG
Sequence of JAK1 (P23458 whole entry): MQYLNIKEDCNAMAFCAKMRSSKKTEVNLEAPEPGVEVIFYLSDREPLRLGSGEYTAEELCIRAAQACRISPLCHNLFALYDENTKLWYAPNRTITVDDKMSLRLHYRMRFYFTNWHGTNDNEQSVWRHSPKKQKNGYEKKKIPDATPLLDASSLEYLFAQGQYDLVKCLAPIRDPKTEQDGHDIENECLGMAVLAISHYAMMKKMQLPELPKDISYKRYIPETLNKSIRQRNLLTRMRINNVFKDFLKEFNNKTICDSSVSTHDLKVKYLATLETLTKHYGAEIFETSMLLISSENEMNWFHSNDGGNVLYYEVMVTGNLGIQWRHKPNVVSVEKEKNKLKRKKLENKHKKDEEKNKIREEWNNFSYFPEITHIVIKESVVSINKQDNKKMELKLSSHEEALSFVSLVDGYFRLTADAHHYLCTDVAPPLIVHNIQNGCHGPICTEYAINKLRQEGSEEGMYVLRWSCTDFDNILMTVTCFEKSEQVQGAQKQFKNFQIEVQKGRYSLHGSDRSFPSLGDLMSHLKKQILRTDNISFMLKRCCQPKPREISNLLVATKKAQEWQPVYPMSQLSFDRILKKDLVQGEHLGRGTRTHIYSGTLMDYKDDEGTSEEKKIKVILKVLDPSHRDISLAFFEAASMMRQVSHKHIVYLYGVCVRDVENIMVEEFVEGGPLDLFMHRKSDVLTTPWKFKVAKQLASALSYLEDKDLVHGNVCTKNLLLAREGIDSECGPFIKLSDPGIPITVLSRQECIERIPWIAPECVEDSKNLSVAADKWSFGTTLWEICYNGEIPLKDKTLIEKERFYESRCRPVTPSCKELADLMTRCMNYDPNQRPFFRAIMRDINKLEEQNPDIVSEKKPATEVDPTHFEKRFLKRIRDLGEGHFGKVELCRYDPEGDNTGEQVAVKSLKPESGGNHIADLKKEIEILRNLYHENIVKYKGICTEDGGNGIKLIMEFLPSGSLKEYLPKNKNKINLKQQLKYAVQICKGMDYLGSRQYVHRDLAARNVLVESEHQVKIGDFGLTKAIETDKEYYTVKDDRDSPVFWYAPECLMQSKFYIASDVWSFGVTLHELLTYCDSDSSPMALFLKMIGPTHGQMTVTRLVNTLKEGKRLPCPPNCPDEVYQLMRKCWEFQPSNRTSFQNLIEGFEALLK
Sequence of Tyk2 (P29597 whole entry): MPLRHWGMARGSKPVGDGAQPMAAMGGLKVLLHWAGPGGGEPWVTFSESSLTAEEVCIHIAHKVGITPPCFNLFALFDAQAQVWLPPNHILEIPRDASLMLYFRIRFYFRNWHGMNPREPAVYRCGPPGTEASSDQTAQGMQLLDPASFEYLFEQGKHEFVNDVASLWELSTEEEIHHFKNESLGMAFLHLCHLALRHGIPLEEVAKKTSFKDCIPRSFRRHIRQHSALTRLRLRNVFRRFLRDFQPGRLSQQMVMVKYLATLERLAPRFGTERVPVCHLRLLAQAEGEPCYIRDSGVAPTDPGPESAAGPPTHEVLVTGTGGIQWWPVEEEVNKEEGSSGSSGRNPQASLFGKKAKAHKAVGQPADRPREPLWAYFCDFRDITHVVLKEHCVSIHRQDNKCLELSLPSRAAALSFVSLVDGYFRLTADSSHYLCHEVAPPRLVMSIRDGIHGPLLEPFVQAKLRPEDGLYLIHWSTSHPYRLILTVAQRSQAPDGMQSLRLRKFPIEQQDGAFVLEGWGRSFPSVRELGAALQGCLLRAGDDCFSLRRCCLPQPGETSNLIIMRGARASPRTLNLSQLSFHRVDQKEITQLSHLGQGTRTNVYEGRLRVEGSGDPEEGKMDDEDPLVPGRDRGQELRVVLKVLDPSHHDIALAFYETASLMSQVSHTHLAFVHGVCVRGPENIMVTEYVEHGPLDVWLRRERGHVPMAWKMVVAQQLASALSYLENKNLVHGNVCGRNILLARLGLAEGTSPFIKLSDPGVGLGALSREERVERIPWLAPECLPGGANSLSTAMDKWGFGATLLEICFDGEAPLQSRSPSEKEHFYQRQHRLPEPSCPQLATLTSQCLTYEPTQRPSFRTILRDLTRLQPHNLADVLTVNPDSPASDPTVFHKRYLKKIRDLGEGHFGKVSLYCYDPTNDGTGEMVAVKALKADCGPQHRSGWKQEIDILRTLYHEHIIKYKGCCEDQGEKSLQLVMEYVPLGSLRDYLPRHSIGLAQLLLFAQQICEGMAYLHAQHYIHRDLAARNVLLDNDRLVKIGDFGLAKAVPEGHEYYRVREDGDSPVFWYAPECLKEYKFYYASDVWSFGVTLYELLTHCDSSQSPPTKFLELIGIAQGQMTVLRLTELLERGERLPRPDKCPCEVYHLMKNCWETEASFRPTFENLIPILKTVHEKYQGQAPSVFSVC
Sequence of JAK3 (P52333 whole entry): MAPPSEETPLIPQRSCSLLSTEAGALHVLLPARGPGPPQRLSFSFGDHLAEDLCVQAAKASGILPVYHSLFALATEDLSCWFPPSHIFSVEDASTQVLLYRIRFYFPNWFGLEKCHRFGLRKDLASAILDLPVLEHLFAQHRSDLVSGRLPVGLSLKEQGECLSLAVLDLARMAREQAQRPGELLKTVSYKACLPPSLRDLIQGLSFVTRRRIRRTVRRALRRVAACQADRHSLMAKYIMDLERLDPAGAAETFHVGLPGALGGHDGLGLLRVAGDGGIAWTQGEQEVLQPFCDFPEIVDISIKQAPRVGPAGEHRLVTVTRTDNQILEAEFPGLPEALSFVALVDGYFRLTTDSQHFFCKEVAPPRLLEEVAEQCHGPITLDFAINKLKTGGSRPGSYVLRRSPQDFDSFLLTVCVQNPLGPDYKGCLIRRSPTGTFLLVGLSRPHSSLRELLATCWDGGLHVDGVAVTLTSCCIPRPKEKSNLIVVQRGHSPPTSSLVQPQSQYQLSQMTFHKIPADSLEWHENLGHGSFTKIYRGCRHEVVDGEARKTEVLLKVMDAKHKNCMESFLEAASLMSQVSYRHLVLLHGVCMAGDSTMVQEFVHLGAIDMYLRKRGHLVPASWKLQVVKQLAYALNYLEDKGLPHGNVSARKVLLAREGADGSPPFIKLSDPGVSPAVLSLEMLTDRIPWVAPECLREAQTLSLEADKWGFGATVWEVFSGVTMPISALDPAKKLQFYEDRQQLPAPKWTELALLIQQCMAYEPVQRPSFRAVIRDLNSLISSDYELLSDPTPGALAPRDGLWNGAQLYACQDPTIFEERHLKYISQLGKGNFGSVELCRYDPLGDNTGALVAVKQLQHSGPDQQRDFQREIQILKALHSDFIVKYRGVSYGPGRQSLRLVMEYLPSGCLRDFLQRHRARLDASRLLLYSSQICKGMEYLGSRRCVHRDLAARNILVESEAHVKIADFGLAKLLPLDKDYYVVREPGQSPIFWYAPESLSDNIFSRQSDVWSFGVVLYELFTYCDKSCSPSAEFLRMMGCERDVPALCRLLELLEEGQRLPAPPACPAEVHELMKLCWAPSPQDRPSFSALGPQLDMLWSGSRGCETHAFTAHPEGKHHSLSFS

| SMILES | Caco Kp (Caco-2 cell monolayers) | JAK 3 (pKi) (JAK3) | JAK3 (pKi)-JAK1 (pKi) (JAK3) | JAK 2 (pKi) (JAK2) | Tall-1 (pIC50) [1] | JAK 1 (pKi) (JAK1) | Tyk 2 (pKi) (Tyk2) |
| --- | --- | --- | --- | --- | --- | --- | --- |
| C=CC(=O)N1CC(CCn2c(=O)ccc3cnc(Nc4ccc(N5CCN(C(C)=O)C[C@H]5C)cc4)nc32)C1 [Example 10, (R)-2-((4-(4-acetyl-2-methylpiperazin-1-yl)phenyl)amino)-8-(2-(1-acryloylazetidin-3-yl)ethyl)pyrido[2,3-d]pyrimidin-7(8H)-one] | A (A represents a value below 5×10^−6 cm/sec) | A (A represents a pKi value≥10 (Ki≤0.1 nM)) | A (A represents a value of 3 or above) | E (E represents a pKi value of 7 or below (Ki of 100 nM or above)) | A (A represents a pIC50 value≥7.5 (IC50≤32 nM)) | E (E represents a pKi value of 7 or below (Ki of 100 nM or above)) | E (E represents a pKi value of 7 or below (Ki of 100 nM or above)) |
| C=CC(=O)N1CC(CCn2c(=O)ccc3cnc(Nc4ccc(N5CCN(C)CC5)cn4)cc32)C1 [Example 14] | A (A represents a value below 5×10^−6 cm/sec) | B (B represents pKi value between 9 and 10 (Ki between 1 nM and 0.1 nM)) | A (A represents a value of 3 or above) | E (E represents a pKi value of 7 or below (Ki of 100 nM or above)) | A (A represents a pIC50 value≥7.5 (IC50≤32 nM)) | E (E represents a pKi value of 7 or below (Ki of 100 nM or above)) | E (E represents a pKi value of 7 or below (Ki of 100 nM or above)) |
| C=CC(=O)N1CCN(CCn2c(=O)ccc3cnc(Nc4cnn(C)c4)nc32)CC1 [Example 16] | A (A represents a value below 5×10^−6 cm/sec) | B (B represents pKi value between 9 and 10 (Ki between 1 nM and 0.1 nM)) | A (A represents a value of 3 or above) | E (E represents a pKi value of 7 or below (Ki of 100 nM or above)) | C (C represents a pIC50 value between 6 and 6.7 (IC50 between 1 μM and 200 nM)) | E (E represents a pKi value of 7 or below (Ki of 100 nM or above)) | E (E represents a pKi value of 7 or below (Ki of 100 nM or above)) |
| C=CC(=O)N1CC(CCn2c(=O)ccc3cnc(Nc4ccccc4)nc32)C1 [Example 18] | C (C represents a value between 10×10^−6 and 30×10^−6 cm/sec) | A (A represents a pKi value≥10 (Ki≤0.1 nM)) | A (A represents a value of 3 or above) | E (E represents a pKi value of 7 or below (Ki of 100 nM or above)) | B (B represents a pC50 value between 6.7 (included) and 7.5 (IC50 between 200 nM and 32 nM)) | E (E represents a pKi value of 7 or below (Ki of 100 nM or above)) | E (E represents a pKi value of 7 or below (Ki of 100 nM or above)) |
| C=CC(=O)N1CC(CCn2c(=O)ccc3cnc(Nc4cnn(CC(F)F)c4)nc32)C1 [Example 20] | B (B represents a value between 5×10^−6 and 10×10^−6 cm/sec) | B (B represents pKi value between 9 and 10 (Ki between 1 nM and 0.1 nM)) | A (A represents a value of 3 or above) | – | C (C represents a pIC50 value between 6 and 6.7 (IC50 between 1 μM and 200 nM)) | E (E represents a pKi value of 7 or below (Ki of 100 nM or above)) | – |
| C=CC(=O)N1CC(CCn2c(=O)ccc3cnc(Nc4cccc(N5CCOCC5)c4)nc32)C1 [Example 28] | C (C represents a value between 10×10^−6 and 30×10^−6 cm/sec) | B (B represents pKi value between 9 and 10 (Ki between 1 nM and 0.1 nM)) | A (A represents a value of 3 or above) | – | C (C represents a pIC50 value between 6 and 6.7 (IC50 between 1 μM and 200 nM)) | E (E represents a pKi value of 7 or below (Ki of 100 nM or above)) | – |
| C=CC(=O)N1CC(CCn2c(=O)ccc3cnc(Nc4cnn(CCO)c4)nc32)C1 [Example 35] | A (A represents a value below 5×10^−6 cm/sec) | B (B represents pKi value between 9 and 10 (Ki between 1 nM and 0.1 nM)) | A (A represents a value of 3 or above) | – | C (C represents a pIC50 value between 6 and 6.7 (IC50 between 1 μM and 200 nM)) | E (E represents a pKi value of 7 or below (Ki of 100 nM or above)) | – |
| C=CC(=O)N1CC(CCn2c(=O)ccc3cnc(Nc4cnn(C(F)F)c4)nc32)C1 [Example 36] | C (C represents a value between 10×10^−6 and 30×10^−6 cm/sec) | B (B represents pKi value between 9 and 10 (Ki between 1 nM and 0.1 nM)) | A (A represents a value of 3 or above) | – | C (C represents a pIC50 value between 6 and 6.7 (IC50 between 1 μM and 200 nM)) | E (E represents a pKi value of 7 or below (Ki of 100 nM or above)) | – |
| C=CC(=O)N1CC(CCn2c(=O)ccc3cnc(Nc4ccc(N5CCOCC5=O)cc4)nc32)C1 [Example 47] | A (A represents a value below 5×10^−6 cm/sec) | B (B represents pKi value between 9 and 10 (Ki between 1 nM and 0.1 nM)) | A (A represents a value of 3 or above) | – | C (C represents a pIC50 value between 6 and 6.7 (IC50 between 1 μM and 200 nM)) | E (E represents a pKi value of 7 or below (Ki of 100 nM or above)) | – |
| C=CC(=O)N1CC(CCn2c(=O)ccc3cnc(Nc4ccc(N5CCSCC5)nc4)nc32)C1 [Example 54] | C (C represents a value between 10×10^−6 and 30×10^−6 cm/sec) | B (B represents pKi value between 9 and 10 (Ki between 1 nM and 0.1 nM)) | A (A represents a value of 3 or above) | – | C (C represents a pIC50 value between 6 and 6.7 (IC50 between 1 μM and 200 nM)) | E (E represents a pKi value of 7 or below (Ki of 100 nM or above)) | – |
| C=CC(=O)N1CC(CCn2c(=O)ccc3cnc(Nc4ccc(C5CCN(C)CC5)cc4)nc32)C1 [Example 77] | A (A represents a value below 5×10^−6 cm/sec) | B (B represents pKi value between 9 and 10 (Ki between 1 nM and 0.1 nM)) | A (A represents a value of 3 or above) | – | B (B represents a pC50 value between 6.7 (included) and 7.5 (IC50 between 200 nM and 32 nM)) | E (E represents a pKi value of 7 or below (Ki of 100 nM or above)) | – |
| C=CC(=O)N1CC(CCn2c(=O)ccc3cnc(Nc4cnn(C5CCOCC5)c4)nc32)C1 [Example 81] | A (A represents a value below 5×10^−6 cm/sec) | B (B represents pKi value between 9 and 10 (Ki between 1 nM and 0.1 nM)) | A (A represents a value of 3 or above) | – | B (B represents a pC50 value between 6.7 (included) and 7.5 (IC50 between 200 nM and 32 nM)) | E (E represents a pKi value of 7 or below (Ki of 100 nM or above)) | – |
